Experimental data published in ChEMBL document CHEMBL4613206, “Recent applications of hydantoin and thiohydantoin in medicinal chemistry” (Eur J Med Chem, 2019).
≈ marks a conversion by molar mass, not a printed value. One block for each compound: values may come before it.

Columns and labels:
Tyrosinase = biological target: T1, Tyrosinase (Homo sapiens, UniProt P14679); experiment: Inhibition of tyrosinase (unknown origin)
T1 sequence (P14679 whole entry): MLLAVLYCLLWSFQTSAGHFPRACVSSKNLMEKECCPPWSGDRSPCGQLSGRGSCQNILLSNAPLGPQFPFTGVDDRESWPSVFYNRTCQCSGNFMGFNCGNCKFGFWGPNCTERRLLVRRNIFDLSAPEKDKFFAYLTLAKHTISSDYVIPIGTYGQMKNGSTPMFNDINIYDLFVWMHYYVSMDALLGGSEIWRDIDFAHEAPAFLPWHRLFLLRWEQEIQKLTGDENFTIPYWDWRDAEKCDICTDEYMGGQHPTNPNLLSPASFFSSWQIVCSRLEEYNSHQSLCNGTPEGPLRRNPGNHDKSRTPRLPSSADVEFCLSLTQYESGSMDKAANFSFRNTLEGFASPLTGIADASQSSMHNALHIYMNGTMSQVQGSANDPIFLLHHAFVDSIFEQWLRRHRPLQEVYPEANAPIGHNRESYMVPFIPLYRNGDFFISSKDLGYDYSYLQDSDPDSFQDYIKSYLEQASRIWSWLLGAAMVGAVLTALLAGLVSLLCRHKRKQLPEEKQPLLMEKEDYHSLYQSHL

[1] = test system: Staphylococcus epidermidis; experiment: Antibacterial activity against methicillin resistant Staphylococcus epidermidis; assay type: functional
Pseudomonas aeruginosa [2] = experiment: Antibacterial activity against Pseudomonas aeruginosa; assay type: functional
Staphylococcus aureus [3] = experiment: Antibacterial activity against methicillin resistant Staphylococcus aureus; assay type: functional
Escherichia coli [4] = experiment: Antibacterial activity against Escherichia coli; assay type: functional
Klebsiella pneumoniae = experiment: Antibacterial activity against Klebsiella pneumoniae; assay type: functional
Enterococcus faecalis [5] = experiment: Antibacterial activity against Enterococcus faecalis; assay type: functional
[6] = biological target: T2, NAD-dependent protein deacetylase sirtuin-1 (Homo sapiens, UniProt Q96EB6); experiment: Inhibition of recombinant human SIRT1 after 30 mins
T2 sequence (Q96EB6 whole entry): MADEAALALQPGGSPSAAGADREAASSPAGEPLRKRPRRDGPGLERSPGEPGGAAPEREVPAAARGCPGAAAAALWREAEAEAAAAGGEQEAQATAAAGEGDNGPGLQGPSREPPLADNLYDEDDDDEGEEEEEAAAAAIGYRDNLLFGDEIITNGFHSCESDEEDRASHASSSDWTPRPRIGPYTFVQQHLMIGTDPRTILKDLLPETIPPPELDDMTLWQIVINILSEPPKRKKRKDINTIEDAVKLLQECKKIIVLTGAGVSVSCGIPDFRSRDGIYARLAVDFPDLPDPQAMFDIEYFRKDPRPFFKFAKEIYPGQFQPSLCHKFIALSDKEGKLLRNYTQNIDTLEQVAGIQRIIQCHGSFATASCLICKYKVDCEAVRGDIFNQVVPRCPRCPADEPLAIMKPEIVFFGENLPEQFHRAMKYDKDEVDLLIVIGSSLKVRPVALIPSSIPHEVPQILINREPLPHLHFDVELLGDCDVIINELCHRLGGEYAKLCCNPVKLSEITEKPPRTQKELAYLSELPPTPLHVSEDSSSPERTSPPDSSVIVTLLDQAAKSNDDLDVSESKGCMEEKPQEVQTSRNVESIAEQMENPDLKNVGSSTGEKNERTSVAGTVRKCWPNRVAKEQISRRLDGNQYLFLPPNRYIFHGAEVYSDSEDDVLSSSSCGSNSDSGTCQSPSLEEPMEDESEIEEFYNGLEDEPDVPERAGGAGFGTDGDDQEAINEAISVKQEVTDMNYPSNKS

[7] = biological target: T3, NAD-dependent protein deacetylase sirtuin-2 (Homo sapiens, UniProt Q8IXJ6); experiment: Inhibition of recombinant human SIRT2 after 30 mins
T3 sequence (Q8IXJ6 whole entry): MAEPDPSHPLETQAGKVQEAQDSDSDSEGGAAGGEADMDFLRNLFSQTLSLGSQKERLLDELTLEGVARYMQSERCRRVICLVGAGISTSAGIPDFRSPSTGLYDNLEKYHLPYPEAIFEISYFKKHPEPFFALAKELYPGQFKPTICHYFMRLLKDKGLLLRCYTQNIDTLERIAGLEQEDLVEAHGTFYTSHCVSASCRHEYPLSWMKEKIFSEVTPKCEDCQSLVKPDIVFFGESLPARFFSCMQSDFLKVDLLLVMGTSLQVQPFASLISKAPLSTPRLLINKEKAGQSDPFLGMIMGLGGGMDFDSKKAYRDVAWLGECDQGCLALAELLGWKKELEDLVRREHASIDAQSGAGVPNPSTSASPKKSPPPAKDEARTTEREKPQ

HEp-2 = experiment: Cytotoxicity against human Hep2 cells assessed as reduction in cell viability by MTT assay; assay type: functional, cell-based
Enterococcus faecalis [8] = experiment: Antibacterial activity against Enterococcus faecalis ATCC 29212; assay type: functional
Staphylococcus aureus [9] = experiment: Antibacterial activity against Staphylococcus aureus ATCC 25923; assay type: functional
Staphylococcus aureus [10] = experiment: Antibacterial activity against methicillin resistant Staphylococcus aureus ATCC 43300; assay type: functional
Escherichia coli [11] = experiment: Antibacterial activity against Escherichia coli ATCC 25922; assay type: functional
Pseudomonas aeruginosa [12] = experiment: Antibacterial activity against Pseudomonas aeruginosa ATCC 27853; assay type: functional
Mus musculus [13] = experiment: Anti-inflammatory activity in xylene-induced Kunming mouse assessed as inhibition of ear edema administered as po dose 1 hr before xylene administration and measured after 1 hr xylene administration relative to control; assay type: functional; set-up: scale not given: the % may be the effect or the level left
Mus musculus [14] = experiment: Antitussive activity in ammonia aerosol-stimulated Kunming mouse assessed as inhibition of number of cough administered as po dose 1 hr before ammonia aerosol stimulation (reference value: 42); assay type: functional
Staphylococcus aureus [15] = experiment: Antibacterial activity against Staphylococcus aureus; assay type: functional

IC50 (Tyrosinase): 1.07 µM
Structure (SMILES): COC(=O)CN1C(=O)N(CCCCN2CCN(c3ccccc3OC)CC2)C(c2ccccc2)(c2ccccc2)C1=O

IC50 (Tyrosinase): 7.36 µM
Structure (SMILES): COc1ccccc1N1CCN(CCCCN2C(=O)N(C)C(=O)C2(c2ccccc2)c2ccccc2)CC1

Structure (SMILES): CCCCCCCCCCCC(=O)N[C@@H](CCCCN)CN1CC(=O)N(c2cccc(Cl)c2)C1=O
MIC [1]: 0.5 mg/L (≈ 0.986 µM)
MIC (Pseudomonas aeruginosa [2]): 1 mg/L (≈ 1.97 µM)
MIC (Staphylococcus aureus [3]): 0.5 mg/L (≈ 0.986 µM)
MIC (Escherichia coli [4]): 1 mg/L
MIC (Klebsiella pneumoniae): 0.78 mg/L (≈ 1.54 µM)
MIC (Enterococcus faecalis [5]): 0.5 mg/L (≈ 0.986 µM)

IC50 [6]: 38.6 µM
IC50 [7]: 38.8 µM
Structure (SMILES): O=C1N/C(=C\c2ccc(N3CCCC3)cc2)C(=O)N1Cc1ccc(Cl)cc1

Structure (SMILES): CC(C)C1NC(=O)N(OCc2cccc(Cl)c2)C1=O (stereo unspecified)
IC50 (HEp-2): 0.07 µM

Structure (SMILES): CC(C)CC1NC(=O)N(OCc2cccc(Cl)c2)C1=O (stereo unspecified)
IC50 (HEp-2): 0.04 µM

Structure (SMILES): CC(C)CC1NC(=O)N(OCc2ccc(Br)cc2)C1=O (stereo unspecified)
IC50 (HEp-2): 0.15 µM

Structure (SMILES): O=C1CN(/N=C2\C(=O)N(Cc3ccc(F)cc3)c3ccccc32)C(=O)N1
MIC (Enterococcus faecalis [8]): 12.5 mg/L (≈ 35.5 µM)
MIC (Staphylococcus aureus [9]): 6.25 mg/L (≈ 17.7 µM)
MIC (Staphylococcus aureus [10]): 6.25 mg/L (≈ 17.7 µM)
MIC (Escherichia coli [11]): 6.25 to 12.5 mg/L (≈ 17.7 to 35.5 µM)
MIC (Pseudomonas aeruginosa [12]): 12.5 mg/L (≈ 35.5 µM)

Structure (SMILES): CC(C)Cc1ccc(C(C)C(=O)N2C(=O)CN(C)C2=O)cc1 (stereo unspecified)
Activity (Mus musculus [13]): 54.61%
Number of coughs (Mus musculus [14]): 15.5

IC50 [6]: 94 µM
IC50 [7]: 68.7 µM
Structure (SMILES): CCN(CC)c1ccc(/C=C2\NC(=O)N(Cc3ccc(C)cc3)C2=O)cc1

Structure (SMILES): O=C1CN(/N=C2\C(=O)N(Cc3ccccc3F)c3ccccc32)C(=O)N1
MIC (Enterococcus faecalis [8]): 12.5 mg/L (≈ 35.5 µM)
MIC (Staphylococcus aureus [9]): 6.25 mg/L (≈ 17.7 µM)
MIC (Staphylococcus aureus [10]): 6.25 mg/L (≈ 17.7 µM)
MIC (Escherichia coli [11]): 6.25 to 12.5 mg/L (≈ 17.7 to 35.5 µM)
MIC (Pseudomonas aeruginosa [12]): 12.5 mg/L (≈ 35.5 µM)

Structure (SMILES): CC(C)Cc1ccc(C(C)C(=O)N2C(=O)CNC2=O)cc1 (stereo unspecified)
Activity (Mus musculus [13]): 24.51%
Number of coughs (Mus musculus [14]): 18.3

MIC (Escherichia coli [4]): 0.088 µM
MIC (Staphylococcus aureus [15]): 0.044 µM (≈ 0.0144 µg/mL)
Structure (SMILES): O=C1NC(CN2CCCC2)C(=O)N1c1c(Cl)cccc1Cl (stereo unspecified)

IC50 [6]: 32.1 µM
IC50 [7]: 37.7 µM
Structure (SMILES): O=C1N/C(=C\c2ccc(O)c(Cl)c2)C(=O)N1Cc1ccc(F)cc1

Structure (SMILES): CC(C)Cc1ccc(C(C)C(=O)N2C(=O)N(C)C(C)(C)C2=O)cc1 (stereo unspecified)
Activity (Mus musculus [13]): 25%
Number of coughs (Mus musculus [14]): 18.6

Structure (SMILES): O=C1CN(/N=C2\C(=O)N(Cc3cccc(F)c3)c3ccccc32)C(=O)N1
MIC (Enterococcus faecalis [8]): 12.5 mg/L (≈ 35.5 µM)
MIC (Staphylococcus aureus [9]): 6.25 mg/L (≈ 17.7 µM)
MIC (Staphylococcus aureus [10]): 6.25 mg/L (≈ 17.7 µM)
MIC (Escherichia coli [11]): 6.25 to 12.5 mg/L (≈ 17.7 to 35.5 µM)
MIC (Pseudomonas aeruginosa [12]): 12.5 mg/L (≈ 35.5 µM)

Structure (SMILES): CC(C)Cc1ccc(C(C)C(=O)O)cc1 (stereo unspecified) [IBUPROFEN]
Activity (Mus musculus [13]): 28.07%
